Reference: patent publication US20040121316A1 (priority 2002, published 2004)
Like-named read-outs stand apart in the source and are kept apart here.

What was measured:
[1] = test system: wild-type HIV-1 strain IIIB; experiment: microbe, parasite or virus in culture; format: cell-based; design: scale not given here
[2] = target: T1, recombinant HIV-1 protease (Human immunodeficiency virus type 1 group M subtype B, UniProt P04585); experiment: biochemical
T1 construct: Enzyme: recombinant HIV-1 protease expressed in E.Coli; purchased Bachem California, Inc. H-9040; host or cells: E. coli

[3] = test system: mutant HIV-1 I84V/L90M; experiment: Resistance Evaluation, I84V/L90M fold change; format: cell-based; design: scale not given here
[4] = Human immunodeficiency virus 1, IIIB
[5] = EC50 of mutant I84V/L90M relative to wild type, class symbols

CCOC(=O)C(C)NP(=O)(COc1ccc(CC(NC(=O)OC2COC3OCCC23)C(O)CN(CC(C)C)S(=O)(=O)c2ccc(OC)cc2)cc1)Oc1ccccc1 (stereo not drawn) [Example 30b]
EC50 [1, 4]: < 50 nM
Ki ([2]; Ki, class symbols, Table 10): < 0.01 nM

CCOC(=O)C(C)NP(=O)(COc1ccc(CC(NC(=O)OC2COC3OCCC23)C(O)CN(CC(C)C)S(=O)(=O)c2ccc(OC)cc2)cc1)OCc1ccccc1 (stereo not drawn) [Example 30e]
I84V/L90M fold change [3, 5]: − (≦3)
EC50 [1, 4]: < 50 nM

CCOC(=O)C(C)OP(=O)(COc1ccc(CC(NC(=O)OC2COC3OCCC23)C(O)CN(CC(C)C)S(=O)(=O)c2ccc(OC)cc2)cc1)Oc1ccccc1 (stereo not drawn) [Example 31e]
EC50 [1, 4]: < 50 nM
Ki ([2]; Ki, class symbols, Table 10): < 0.01 nM

CCOP(=O)(COc1ccc(S(=O)(=O)N(CC(C)C)CC(O)C(Cc2ccc(N)cc2)NC(=O)OC2COC3OCCC23)cc1)OCC (stereo not drawn) [NH2, OEt]
I84V/L90M fold change ([3]; mutant I84V/L90M vs wild type): ++ (>10 to ≦30)
EC50 ([1]; read-out: EC50): 50 to 500 nM

CCOP(=O)(COc1ccc(S(=O)(=O)N(CC(C)C)CC(O)C(Cc2ccc(N(C)C)cc2)NC(=O)OC2COC3OCCC23)cc1)OCC (stereo not drawn) [NMe2, OEt]
I84V/L90M fold change ([3]; mutant I84V/L90M vs wild type): ++ (>10 to ≦30)
EC50 ([1]; read-out: EC50): < 50 nM

CC(C)CN(CC(O)C(Cc1ccc(O)cc1)NC(=O)OC1COC2OCCC12)S(=O)(=O)c1cccc(N)c1 (stereo not drawn) [OH, m-NH2]
I84V/L90M fold change ([3]; mutant I84V/L90M vs wild type): − (≦3)
EC50 (nM) [1]: + +

CC(C)CN(CC(O)C(Cc1ccc(O)cc1)NC(=O)OC1COC2OCCC12)S(=O)(=O)c1ccc(N)cc1 (stereo not drawn) [OH, p-NH2]
I84V/L90M fold change ([3]; mutant I84V/L90M vs wild type): − (≦3)
EC50 (nM) [1]: + +

COc1ccc(S(=O)(=O)N(CC(C)C)C[C@@H](O)[C@H](Cc2ccc(OCP(=O)(OCc3ccccc3)OCc3ccccc3)cc2)NC(=O)OC2CCOC2)cc1 (stereo partly drawn) [OMe, OBn]
I84V/L90M fold change ([3]; mutant I84V/L90M vs wild type): + +
EC50 (nM) [1]: + + +

COc1ccc(S(=O)(=O)N(CC(C)C)C[C@@H](O)[C@H](Cc2ccc(OCP(=O)(O)O)cc2)NC(=O)OC2CCOC2)cc1 (stereo partly drawn) [OMe, OH]
I84V/L90M fold change ([3]; mutant I84V/L90M vs wild type): + + +
EC50 ([1]; read-out: EC50): > 5000 nM

CC(C)CN(C[C@@H](O)[C@H](Cc1ccccc1)NC(=O)O[C@H]1CO[C@H]2OCC[C@H]21)S(=O)(=O)c1ccc(OCP(=O)(Oc2ccccc2)O[C@@H](C)C(=O)OC(C)C)cc1 (stereo partly drawn) [OPh, Lac-iPr]
EC50 ([1]; read-out: EC50): 500 to 5000 nM
Ki ([2]; read-out: Ki): 0.1 to 1 nM

CCCCOC(=O)C(CC)NP(=O)(COc1ccc(CC(NC(=O)OC2COC3OCCC23)C(O)CN(CC(C)C)S(=O)(=O)c2ccc(OC)cc2)cc1)NC(CC)C(=O)OCCCC (stereo not drawn) [drawing 612 R1=Aba-Bu R2=Aba-Bu]
I84V/L90M fold change [3, 5]: + (>3 to ≦10)
EC50 [1, 4]: < 50 nM

CCCCOC(=O)C(CC(C)C)NP(=O)(COc1ccc(CC(NC(=O)OC2COC3OCCC23)C(O)CN(CC(C)C)S(=O)(=O)c2ccc(OC)cc2)cc1)NC(CC(C)C)C(=O)OCCCC (stereo not drawn) [drawing 612 R1=Leu-Bu R2=Leu-Bu]
I84V/L90M fold change [3, 5]: + (>3 to ≦10)
EC50 [1, 4]: 50 to 500 nM

CCNP(=O)(COc1ccc(CC(NC(=O)OC2COC3OCCC23)C(O)CN(CC(C)C)S(=O)(=O)c2ccc(OC)cc2)cc1)NCC (stereo not drawn) [drawing 612 R1=NHEt R2=NHEt]
I84V/L90M fold change [3, 5]: − (≦3)
EC50 [1, 4]: 50 to 500 nM

CCOC(=O)C(NP(=O)(COc1ccc(CC(NC(=O)OC2COC3OCCC23)C(O)CN(CC(C)C)S(=O)(=O)c2ccc(OC)cc2)cc1)NC(C(=O)OCC)C(C)C)C(C)C (stereo not drawn) [drawing 612 R1=Val-Et R2=Val-Et]
I84V/L90M fold change [3, 5]: − (≦3)
EC50 [1, 4]: < 50 nM

CCOC(=O)C(C)OP(=O)(COc1ccc(CC(NC(=O)OC2COC3OCCC23)C(O)CN(CC(C)C)S(=O)(=O)c2ccc(OC)cc2)cc1)OC(C)C(=O)OCC (stereo not drawn) [drawing 613 R1=Lac-Et R2=Lac-Et]
I84V/L90M fold change [3, 5]: − (≦3)
EC50 [1, 4]: 50 to 500 nM

COc1ccc(S(=O)(=O)N(CC(C)C)CC(O)C(Cc2ccc(OCP(=O)(OC(C)C(=O)OC(C)C)OC(C)C(=O)OC(C)C)cc2)NC(=O)OC2COC3OCCC23)cc1 (stereo not drawn) [drawing 613 R1=Lac-iPr R2=Lac-iPr]
I84V/L90M fold change [3, 5]: − (≦3)
EC50 [1, 4]: < 50 nM

COc1ccc(S(=O)(=O)N(CC(C)C)CC(O)C(Cc2ccc(OCP(=O)(O)OC(C)C(=O)O)cc2)NC(=O)OC2COC3OCCC23)cc1 [drawing 615 R1=OH R2=(R)Lac-OH]
I84V/L90M fold change [3, 5]: − (≦3)

COc1ccc(S(=O)(=O)N(CC(C)C)CC(O)C(Cc2ccc(OCP(=O)(O)OC(C)C(=O)O)cc2)NC(=O)OC2COC3OCCC23)cc1 (stereo not drawn) [drawing 615 R1=OH R2=Lac-OH]
I84V/L90M fold change [3, 5]: − (≦3)
EC50 [1, 4]: 500 to 5000 nM

CCOP(=O)(CON=Cc1ccc(CC(NC(=O)OC2COC3OCCC23)C(O)CN(CC(C)C)S(=O)(=O)c2ccc(OC)cc2)cc1)OCC (stereo not drawn) [drawing 621 R1=Et R2=Et]
I84V/L90M fold change [3, 5]: − (≦3)
EC50 [1]: + + +

COc1ccc(S(=O)(=O)N(CC(C)C)CC(O)C(CC2=CCN(CCP(=O)(OCc3ccccc3)OCc3ccccc3)CC2)NC(=O)OC2COC3OCCC23)cc1 (stereo not drawn) [drawing 630]
I84V/L90M fold change [3, 5]: + (>3 to ≦10)

COc1ccc(S(=O)(=O)N(CC(C)C)CC(O)C(Cc2ccc(NCP(=O)(NC(C)C(=O)OC(C)C)Oc3ccccc3)cc2)NC(=O)OC2COC3OCCC23)cc1 (stereo not drawn) [drawing 660]
Ki ([2]; class symbols, Table 10): + +

COc1ccc(S(=O)(=O)N(CC(C)C)CC(O)C(Cc2ccc(NCP(=O)(NC(C)C(=O)OC(C)C)Oc3ccccc3)cc2)NC(=O)OC2COC3OCCC23)cc1 (stereo not drawn) [drawing 661]
Ki ([2]; class symbols, Table 10): + +

COc1ccc(S(=O)(=O)N(CC(C)C)CC(O)C(Cc2ccc(NCP(=O)(NC(C)C(=O)OC(C)C)Oc3ccccc3)cc2)NC(=O)OC2COC3OCCC23)cc1 (stereo not drawn) [drawing 662]
Ki ([2]; class symbols, Table 10): + + +

CCCCOC(=O)C(C)OP(=O)(COc1ccc(CC(NC(=O)OC2COC3OCCC23)C(O)CN(CC(C)C)S(=O)(=O)c2cccc(N)c2)cc1)Oc1ccccc1 (stereo not drawn) [drawing 720]
Ki (pM) [2]: + +
